Data taken from patent publication US6483013B1, “Method for agrobacterium mediated transformation of cotton” (Bayer BioScience N.V., priority 1999, dated 2002).
Values joined by “and” are separate entries in the source; they are usually repeats but may differ in a detail not shown here. Equal values may be shown once.

Test system: cotton embryogenic callus
Assay: β-glucuronidase (GUS) assay of embryogenic cotton callus after cocultivation with Agrobacterium strain A3311
Format: cell-based, cotton (variety Coker 312)
Method: Embryogenic cotton callus was obtained in the following way: Cotton seeds of variety Coker 312 were disinfected using a 12% sodium hypochloride solution, and germinated individually in tubes containing a solution of gelrite 2/g/l H2O and 0.94 g/l MgCl2.6H2O. The tubes were incubated in the dark at 27-28° C. After 10 to 14 days, seedlings are collected, the hypocotyls of the seedlings were cut in segments of about 1 cm and incubated on medium 104 (without plant hormones) at 28° C. under a regime of 16 hr light and 8 hr dark. Every three weeks, the segments were transferred to fresh medium, until embryogenic callus was formed (usually after about 9 weeks). This callus was removed from the explants and cultured further on medium 104.
Agrobacterium strain A 3311 cells were grown on AB medium or MAG medium, collected and resuspended in M104 liquid medium, pH 5.2 (either with or without 100 μM acetosyringone (AS)) or MAG medium at a density of about 1×10^9 CFU/ml. Small embryogenic cotton callus clumps were collected, washed in liquid medium 104 at pH 5.2, and immersed in the Agrobacterium suspension for about 20 minutes. The infected embryogenic calli were than transferred to solid medium 104, pH 5.2, supplemented with either 100 μM AS, 0.5 g/l casamino acids, 100 μM AS and 0.5 g/l casamino acids, or not supplemented at all, and incubated for cocultivation during 4 days in the dark at about 24° C.
After the cocultivation phase, the callus clumps were transferred to selective medium 104 supplemented with 50 mg/l kanamycin and 500mg/l Claforan.
At different time intervals after the cocultivation, samples of embryogenic callus were collected and subjected to a β-glucuronidase assay, using a chromogenic substrate as described by Jefferson et al. (1987; Plant Mol. Biol. Rep. 5: 387-405). The results of these tests are summarized in table 1, and are expressed as the percentage of calli expressing GUS-positive spots.
As a control, experiments were included using tobacco leaf discs co-cultivated with A3311, using mock-inoculated tobacco leaf discs or using mock-inoculated embryogenic cotton callus.

[1] = 100 μM AS only in A3311 resuspension medium M104, cocultivation medium M104 not supplemented
[2] = A3311 resuspended in M104 + 100 μM AS, supplement in cocultivation medium M104
[3] = A3311 resuspended in M104, supplement in cocultivation medium M104
[4] = A3311 resuspended in MAG, supplement in cocultivation medium M104
[5] = no Agrobacterium (mock-inoculated), supplement in cocultivation medium M104

SMILES: COc1cc(C(C)=O)cc(OC)c1O [AS, 3,5-dimethoxy-4-hydroxyacetophenone]
- percentage of calli expressing GUS-positive spots, 4 weeks [1]: 0%
- percentage of calli expressing GUS-positive spots, 6 weeks [1]: 0%
- percentage of calli expressing GUS-positive spots, 8 weeks [1]: Dead
- percentage of calli expressing GUS-positive spots, 4 days [1]: 0%
- percentage of calli expressing GUS-positive spots, 11 days [1]: 0%
- percentage of calli expressing GUS-positive spots, 8 weeks [2]: 90% and 50%
- percentage of calli expressing GUS-positive spots, 11 days [2]: 70% and 90%
- percentage of calli expressing GUS-positive spots, 6 weeks [3]: 15% and 25%
- percentage of calli expressing GUS-positive spots, 8 weeks [3]: 20%
- percentage of calli expressing GUS-positive spots, 11 days [3]: 50% and 90%
- percentage of calli expressing GUS-positive spots, 4 days (A3311 resuspended in MAG, supplement in cocultivation medium M104 (100 μM AS and/or 0.5 g/l cas. acids)): 90%
- percentage of calli expressing GUS-positive spots, 4 weeks [4]: 50%
- percentage of calli expressing GUS-positive spots, 6 weeks [4]: 50% and 90%
- percentage of calli expressing GUS-positive spots, 8 weeks [4]: 90% and 80%
- percentage of calli expressing GUS-positive spots, 11 days [4]: 90%
- need for inclusion during Agrobacterium mediated transformation of embryogenic callus (both for transient expression and after prolonged cultivation of the transformed calli): required
- percentage of calli expressing GUS-positive spots, 4 days (no Agrobacterium (mock-inoculated), supplement in cocultivation medium M104 (100 μM AS and/or 0.5 g/l cas. acids)): 0%
- percentage of calli expressing GUS-positive spots, 4 weeks [5]: 0%
- percentage of calli expressing GUS-positive spots, 6 weeks [5]: 0%
- percentage of calli expressing GUS-positive spots, 8 weeks [5]: Dead
- percentage of calli expressing GUS-positive spots, 11 days [5]: 0%
